In patent publication US20210324359A1, “USE OF GRAM-NEGATIVE LYSIN-ANTIMICROBIAL PEPTIDE (AMP) POLYPEPTIDE CONSTRUCTS IN TREATING ENDOCARDITIS” (priority 2020, published 2021):

Key:
Format in all cases: cell-based, Pseudomonas aeruginosa
[1] = test system: carbapenem-resistant P. aeruginosa strains; experiment: Resensitization of carbapenem-resistant strains, combinations with imipenem or meropenem (Tables 18-22)
Description: Such resensitization may be determined by combining the present lysins or lysin-AMP polypeptide constructs with an antibiotic in a checkerboard assay as described herein. Antibiotic-resistant bacteria, such as carbapenem-resistant P. aeruginosa, are added to the lysin or lysin-AMP polypeptide construct combination. […] See Clinical and Laboratory Standards Institute (CLSI), CLSI. […] M100 Performance Standards for Antimicrobial Susceptibility Testing; 29th Edition. Clinical and Laboratory Standards Institute, Wayne, Pa., which is herein incorporated by reference in its entirety.
Up to seven carbapenem-resistant isolates were assessed. […] See Clinical and Laboratory Standards Institute (CLSI), CLSI. […] M100 Performance Standards for Antimicrobial Susceptibility Testing; 29th Edition. Clinical and Laboratory Standards Institute, Wayne, Pa.

[2] = test system: P. aeruginosa strain WC-453; experiment: Time-kill assay in HEPES or CAA with 25% human serum (Tables 7, 8); conditions: for HEPES (Log10 CFU/mL), 1 hr / HEPES (Log10 CFU/mL), 3 hr: 25 mM HEPES pH 7.4; for HEPES (Log10 CFU/mL), 1 hr / HEPES (Log10 CFU/mL), 3 hr / CAA/HuS (Log10 CFU/mL), 1 hr / CAA/HuS (Log10 CFU/mL), 3 hr: lysin 10 μg/ml, WC-453; for CAA/HuS (Log10 CFU/mL), 1 hr / CAA/HuS (Log10 CFU/mL), 3 hr: CAA + 25% human serum
Description: Exponential phase bacteria were then pelleted and resuspended in 1/5 culture volume of 25 mM HEPES, pH 7.4 before a final adjustment to an optical density corresponding to a McFarland value of 0.5. […] All treatments were incubated at 37° C. with aeration. At time points before the addition of lysin (or buffer control) and at 1 hour and 3 hours intervals thereafter, culture samples were removed for quantitative plating on CAA agar plates.

[3] = test system: carbepenam-resistant clinical isolate WC-453; experiment: MIC in CAA without or with 25% human serum (Table 5); parameters: CAA MIC: unit not given here; conditions: for CAA/HuS MIC: CAA supplemented with 25% human serum
Description: MIC values were determined using a modification of the standard broth microdilution reference method defined by the Clinical and Laboratory Standards Institute (CLSI), CLSI. […] Methods for Dilution Antimicrobial Susceptibility Tests for Bacteria That Grow Aerobically; Approved Standard-10th Edition. Clinical and Laboratory Standards Institute, Wayne, Pa.

P. aeruginosa = experiment: MIC, modified CLSI broth microdilution in CAA medium without or with […] human serum (Table 4); conditions: for CAA MIC: CAA medium, no human serum; for CAA/HuS MIC: CAA supplemented with […] human serum; for effect of the structural modification on activity (as assessed by MIC) versus the parent lysin: CAA with and without human serum, parent GN316 or GN37; for CAA/HuS MIC: CAA supplemented with 2.5% human serum
Text: 2015. […] Clinical and Laboratory Standards Institute, Wayne, Pa.

[4] = in combination with GN121, isolate PA19
[5] = in combination with GN121, isolate PA20
[6] = in combination with GN121, isolate PA21
[7] = in combination with GN121, isolate PA22
[8] = in combination with GN121, isolate PA23
[9] = in combination with GN121, isolate PA24
[10] = in combination with GN123, isolate PA19
[11] = in combination with GN123, isolate PA20
[12] = in combination with GN123, isolate PA21
[13] = in combination with GN123, isolate PA22
[14] = in combination with GN123, isolate PA23
[15] = in combination with GN123, isolate PA24
[16] = in combination with GN123, isolate WC-452

C[C@@H](O)[C@H]1C(=O)N2C(C(=O)O)=C(SCCN=CN)C[C@H]12 [Imipenem, imipenem, reference compound]
antibiotic MIC, Combination [1, 4]: 1 µg/mL | carbapenem susceptibility class, Combination [1, 4]: (S) ((S) = sensitive) | antibiotic MIC, Combination [1, 5]: 0.5 µg/mL | carbapenem susceptibility class, Combination [1, 5]: (S) ((S) = sensitive) | antibiotic MIC, Combination [1, 6]: 1 µg/mL | carbapenem susceptibility class, Combination [1, 6]: (S) ((S) = sensitive) | antibiotic MIC, Combination [1, 7]: 2 µg/mL | carbapenem susceptibility class, Combination [1, 7]: (S) ((S) = sensitive) | antibiotic MIC, Combination [1, 8]: 0.125 µg/mL | carbapenem susceptibility class, Combination [1, 8]: (S) ((S) = sensitive) | antibiotic MIC, Combination [1, 9]: 1 µg/mL | carbapenem susceptibility class, Combination [1, 9]: (S) ((S) = sensitive) | antibiotic MIC, Combination [1, 10]: 0.5 µg/mL | carbapenem susceptibility class, Combination [1, 10]: (S) ((S) = sensitive) | antibiotic MIC, Combination [1, 11]: 1 µg/mL | carbapenem susceptibility class, Combination [1, 11]: (S) ((S) = sensitive) | antibiotic MIC, Combination [1, 12]: 0.5 µg/mL | carbapenem susceptibility class, Combination [1, 12]: (S) ((S) = sensitive) | antibiotic MIC, Combination [1, 13]: 2 µg/mL | carbapenem susceptibility class, Combination [1, 13]: (S) ((S) = sensitive) | antibiotic MIC, Combination [1, 14]: 0.25 µg/mL | carbapenem susceptibility class, Combination [1, 14]: (S) ((S) = sensitive) | antibiotic MIC, Combination [1, 15]: 2 µg/mL | carbapenem susceptibility class, Combination [1, 15]: (S) ((S) = sensitive) | antibiotic MIC, Combination [1, 16]: 1 µg/mL | carbapenem susceptibility class, Combination [1, 16]: (S) ((S) = sensitive) | carbapenem susceptibility class, Combination ([1]; in combination with GN351, vs. WC-452): (S) ((S) = sensitive) | carbapenem susceptibility class, Combination ([1]; in combination with GN370, vs. WC-452): (S) ((S) = sensitive) | carbapenem susceptibility class, Combination ([1]; in combination with GN428, vs. WC-452): (S) ((S) = sensitive) | carbapenem susceptibility class, antibiotic Alone ([1]; isolate PA19): R ((R) = resistant) | carbapenem susceptibility class, antibiotic Alone ([1]; isolate PA20): R ((R) = resistant) | carbapenem susceptibility class, antibiotic Alone ([1]; isolate PA21): R ((R) = resistant) | carbapenem susceptibility class, antibiotic Alone ([1]; isolate PA22): R ((R) = resistant) | carbapenem susceptibility class, antibiotic Alone ([1]; isolate PA23): R ((R) = resistant) | carbapenem susceptibility class, antibiotic Alone ([1]; isolate PA24): R ((R) = resistant) | carbapenem susceptibility class, antibiotic Alone ([1]; isolate WC-452): R ((R) = resistant)

B1: GN14: lysin obtained from Pseudomonas phage Lull (SEQ ID NO: 124) (protein)
chain: NNELPWVAEARKYIGLREDTSKTSHNPKLLAMLDRMGEFSNESRAWWHDDETPWCGLFVGYCLGVAGRYVVREWYRARAWEAPQLTKLDRPAYGALVTFTRSGGGHVGFIVGKDARGNLMVLGGNQSNAVSIAPFAVSRVTGYFWPSFWRNKTAVKSVPFEERYSLPLLKSNGELSTNEA
bactericidal activity (CFU decrease of 3-Log10, 3 hours after the addition of lysin) ([2]; 10 μg/mL, enumerated lysins in CAA/HuS, general statement for HEPES and CAA/HuS): bactericidal activity | HEPES (Log10 CFU/mL), 1 hr [2]: <3.7 Log10 CFU/mL | HEPES (Log10 CFU/mL), 3 hr [2]: <3.7 Log10 CFU/mL | CAA/HuS (Log10 CFU/mL), 1 hr [2]: 5.7 Log10 CFU/mL | CAA/HuS (Log10 CFU/mL), 3 hr [2]: <3.7 Log10 CFU/mL | activity in CAA supplemented with human serum (25%) [3]: active | CAA MIC [3]: >128 | CAA/HuS MIC [3]: 32

B2: GN243: lysin-AMP construct: PP moiety, IGEM linker and TI15 peptide C-terminal to GN37 lysin (SEQ ID NO: 16) (protein)
chain: MTYTLSKRSLDNLKGVHPDLVAVVHRAIQLTPVDFAVIEGLRSVSRQKELVAAGASKTMNSRHLTGHAVDLAAYVNGIRWDWPLYDAIAVAVKAAAKELGVAIVWGGDWTTFKDGPHFELDRSKYRKKTRKRLKKIGKVLKWIPPGGGSGGGGSGGGSTRKRLKKIGKVLKWI
CAA MIC (P. aeruginosa): 32000 µg/mL | CAA/HuS MIC (P. aeruginosa): 500 µg/mL | effect of the structural modification on activity (as assessed by MIC) versus the parent lysin (P. aeruginosa): very strong activity in the presence of human serum

B3: GN65: Lysin GN65, used as control (protein)
chain: MAILKIGSKGLEVKNLQTSLNKIGFNLVADGIFGKATDNAVRAVQAGAGLVVDGIAGPKTMYAIRNAGESHQDHLTEADLIDAARELSVDLASIKAVNQVESRGTGFTKSGKIKTLFERHIMYKKLNAKFGQAKANALAQLYPTLVNAKAGGYTGGDAELERLHGAIAIDKDCAYESASYGLFQIMGFNCVICGYDNAEEMFNDFLTGERAQLMAFVKFIKADANLWKALKDKNWAEFARRYNGPAYAQNQYDTKLAAAYKSFS
modifications: (1)..(264) GN316 lysin
HEPES (Log10 CFU/mL), 1 hr [2]: 5.7 Log10 CFU/mL | HEPES (Log10 CFU/mL), 3 hr [2]: <3.7 Log10 CFU/mL | CAA/HuS (Log10 CFU/mL), 1 hr [2]: 6.0 Log10 CFU/mL | CAA/HuS (Log10 CFU/mL), 3 hr [2]: <3.7 Log10 CFU/mL

B4: GN40: lysin obtained from Pseudomonas putida strain PA14H7 (SEQ ID NO: 210) (protein, listed as Micavibrio aeruginosavorus)
chain: MFRPSYILPGVAAVMLLASTAAHAAGYEWKRVDYQYLQSVSEKERGMLRIYKDYEEREPCQNYRELPPEVKYVDCKLYHRVAIPDPPPPPAPPPAPEPPKVVSSYEIFFPLDSTALDLQANAMVDKAAADIALYQPSTVIVAGYTDTSGAADYNDQLSANRAMAVSAALSQRGIPNTAMDLEAHGQNDLKVPTADDVHEPQNRRTVIHFMK
HEPES (Log10 CFU/mL), 1 hr [2]: 7.0 Log10 CFU/mL | HEPES (Log10 CFU/mL), 3 hr [2]: 5.7 Log10 CFU/mL | CAA/HuS (Log10 CFU/mL), 1 hr [2]: 6.6 Log10 CFU/mL | CAA/HuS (Log10 CFU/mL), 3 hr [2]: 6.7 Log10 CFU/mL

B5: GN239: lysin-AMP construct: IGEM linker and RI18 peptide C-terminal to GN37 lysin (SEQ ID NO: 14) (protein)
chain: MTYTLSKRSLDNLKGVHPDLVAVVHRAIQLTPVDFAVIEGLRSVSRQKELVAAGASKTMNSRHLTGHAVDLAAYVNGIRWDWPLYDAIAVAVKAAAKELGVAIVWGGDWTTFKDGPHFELDRSKYGGGSGGGGSGGGSRKKTRKRLKKIGKVLKWI
CAA MIC (P. aeruginosa): 4000 µg/mL | CAA/HuS MIC (P. aeruginosa): 250 µg/mL | effect of the structural modification on activity (as assessed by MIC) versus the parent lysin (P. aeruginosa): very strong activity in the presence of human serum

B6: GN328: lysin obtained from Pseudomonas protegens (SEQ ID NO: 220) (protein, listed as Pseudomonas protegens)
chain: MNTLRHGDRSQAVRSLQKNLNSHGAILVVDGDYGDATEAAVRAYQLKAGLVVDGIAGEKTQTSLVGGDCALLLKNADLVSAAQRLDLPLASVYAVNEVESNGKGFFANGKPAILFERHIMYRQLKTPRYPGDDPAELKRHADELAAQYPAIINPNPGGYAGGPAEHQRLATARLIDDTAALESASWGAFQIMGFHWKRLGYASVQDFVTAMSASEPRQFEAFVRFIETDPALHKALKARKWSDFARQYNGPNYQRNLYDTKLQRAYERHSACSCGQEVPA
activity in CAA supplemented with human serum (25%) [3]: active | CAA MIC [3]: 8 | CAA/HuS MIC [3]: 2

B7: GN81: dispersin B, an enzyme that degrades biofilm (SEQ ID NO: 226); control (protein, listed as Actinobacillus pleuropneumoniae)
chain: MDLPKKESGLTLDIARRFYTVDTIKQFIDTIHQAGGTFLHLHFSDHENYALESSYLEQREENATEKNGTYFNPKTNKPFLTYKQLNEIIYYAKERNIEIVPEVDSPNHMTAIFDLLTLKHGKEYVKGLKSPYIAEEIDINNPEAVEVIKTLIGEVIYIFGHSSRHFHIGGDEFSYAVENNHEFIRYVNTLNDFINSKGLITRVWNDGLIKNNLSELNKNIEITYWSYDGDAQAKEDIQYRREIRADLPELLANGFKVLNYNSYYLYFVPKSGSNIHNDGKYAAEDVLNNWTLGKWDGKNSSNHVQNTQNIIGSSLSIWGERSSALNEQTIQQASKNLLKAVIQKTNDPKSH
HEPES (Log10 CFU/mL), 1 hr [2]: 7.4 Log10 CFU/mL | HEPES (Log10 CFU/mL), 3 hr [2]: 6.5 Log10 CFU/mL | CAA/HuS (Log10 CFU/mL), 1 hr [2]: 6.7 Log10 CFU/mL | CAA/HuS (Log10 CFU/mL), 3 hr [2]: 7.0 Log10 CFU/mL

B8: GN223: lysin-AMP construct: RPP moiety, IGEM linker and amurin peptide Gkh2 C-terminal to GN37 lysin (SEQ ID NO: 12) (protein)
chain: MTYTLSKRSLDNLKGVHPDLVAVVHRAIQLTPVDFAVIEGLRSVSRQKELVAAGASKTMNSRHLTGHAVDLAAYVNGIRWDWPLYDAIAVAVKAAAKELGVAIVWGGDWTTFKDGPHFELDRSKYRPPGGGSGGGGSGGGSSKKASRKSFTKGAVKVHKKNVPTRVPMRGGIRL
CAA MIC (P. aeruginosa): 32000 µg/mL | CAA/HuS MIC (P. aeruginosa): 2000 µg/mL | effect of the structural modification on activity (as assessed by MIC) versus the parent lysin (P. aeruginosa): very strong activity in the presence of human serum
